Laboratory results from patent US20230020329A1, “Annelated 9-hydroxy-1,8-dioxo-1,3,4,8-tetrahydro-2H-pyrido[1,2-a]pyrazine-7-carboxamides as HIV integrase inhibitors, methods of preparation and application thereof” (priority 2019, published 2023).
pEC50: −log10 of the molar value.

The compounds below were run on HIV-1 (IIIB strain) (assay: Anti-HIV cytoprotection assay (XTT), HIV-1 IIIB in CEM-SS cells). Settings: Human immunodeficiency virus 1, IIIB, CEM-SS, CEM-SS cell line; read-out: Inhibitory activity (EC50) against HIV-1 (IIIB strain).
Format: cell-based
From the text: a) Inhibitory Activity of the Lymphocytropic Virus Strain HIV-1 (IIIB) in the CEM-SS Cell Line.
The evaluation was done by ImQuest BioSciences, Inc. (Frederick, Md., USA). CEM-SS cells [Foley G. E. et al. Continuous Culture of Human Lymphoblasts from Peripheral Blood of a Child with Acute Leukemia. Cancer 1965, 18, 522-529] obtained through the NIH AIDS Research and Reference Reagent Program (Manassas, Va., USA) were passaged in T-75 flasks prior to use cell culture medium consisting of RPMI1640 medium (Lonza; Walkersville, Md., USA) supplemented with 10% heat inactivated fetal bovine serum (Gibco; Grand Island, N.Y.), […] L-glutamine (Lonza), […] penicillin (Lonza) and […] streptomycin (Lonza) for antiviral analysis. The CEM-SS cells were kept in RPMI 140 medium supplemented with 10% heat inactivated bovine fetal serum, 2 mM glutamine, 100 U/ml penicillin, and 100 μg/ml streptomycin.
A lymphocytropic HIV-1 IIIB strain [Popovic, M. et al. Detection, isolation, and continuous production of cytopathic retroviruses (HTLV-III) from patients with AIDS and pre-AIDS. Science. 1984, 224 (4648), 497-500] was chosen for a virus to be analyzed. The virus was obtained through the NIH AIDS Research and Reference Reagents Program and grown in CEM-SS cells to produce a stock virus pool. A pre-titrated aliquot of the virus was removed from the freezer (−80° C.) and allowed to slowly thaw to room temperature in a biological safety cabinet. The virus was diluted in a tissue culture medium so that the amount of virus added in 50 μl per well was sufficient to kill 85 to 95% of the cells 6 days after infection. HIV-1 IIIB was grown and titrated in CEM-SS cells. The inhibitory effect of […] was evaluated in CEM-SS cells as described earlier [Nara, P. L. at al. Simple, rapid, quantitative, syncytium-forming microassay for the detection of human immunodeficiency virus neutralizing antibody. AIDS Res. Hum. Retroviruses 1987, 3, 283-302.] in microtiter plate anti-HIV assays to quantitatively assess the ability of a compound to inhibit HIV-induced cell death. Quantification was carried out using 2,3-bis-(2-methoxy-4-nitro-5-[…])-(2H)-tetrazolium-5-carboxanilide (XTT) tetrazolium, which is metabolized to a stained formazan product through viable […] The compounds given in Table 1 were dissolved at 10 μM in DMSO and stored at −20° C.
Test materials were evaluated using antiviral assays in triplicate in concentrations of 30 and 10 nM. The compounds shown in table 1 were dissolved at 10 μM in DMSO and stored at −20° C. […] Sixty nanomolar concentrations of each compound (2 times that of the test concentration in the well) were prepared by diluting 10 μM DMSO stock 1:100 in cell culture medium (10 μl of compound added to 990 μl of the medium) followed by 1:10 dilution (10 μl of the compound was added to 90 μl of the medium), then 6 μl was added to 994 μl of the medium; […] μl was added to a 96-well microtiter plate in triplicate to ensure efficacy and one colorimetric well. Twenty nanomolar concentrations of each compound (twice as much as the test concentration in the well) were prepared by diluting 10 μM DMSO with the original 1:100 in cell culture medium (10 μl of the compound added to 990 μl of the medium) followed by diluting […] (10 μl of the compound was added to 900 μl of the medium), then 20 μl was added to 980 μl of the medium; 100 μl was added to a 96-well microtiter plate in triplicate to ensure efficacy and one colorimetric well.
Azidothymidine (AZT) was purchased from Sigma Aldrich (USA) and evaluated as a positive control compound in an antiviral assay using a six-concentration reaction curve on each assay plate.
Test compounds were initially evaluated for HIV-1 IIIB strain in CEM-SS cells at test concentrations of 30 and 10 nM. […]

SMILES | pEC50
Cc1ccc(CNC(=O)c2cn3c(c(O)c2=O)C(=O)N2[C@@H](C)CO[C@@H]2C3)o1 [Compound 1.1.3, (3S,11aR)-6-hydroxy-3-methyl-N-[(5-methyl-2-furyl)methyl]-5,7-dioxo-2,3,5,7,11,11a-hexahydro[1,3]oxazolo[3,2-a]pyrido[1,2-d]pyrazine-8-carboxamide] | 8.00 to 8.70
Cc1n[nH]c(C)c1CNC(=O)c1cn2c(c(O)c1=O)C(=O)N1[C@@H](C)CO[C@@H]1C2 [Compound 1.1.4, (3S,11aR)-6-hydroxy-N-[(3,5-dimethyl-1H-pyrazol-4-yl)methyl]-3-methyl-5,7-dioxo-2,3,5,7,11,11a-hexahydro[1,3]oxazolo[3,2-a]pyrido[1,2-d]pyrazine-8-carboxamide] | ~8.10
Cc1nn(C)c(C)c1CNC(=O)c1cn2c(c(O)c1=O)C(=O)N1[C@@H](C)CO[C@@H]1C2 [Compound 1.1.5, (3S,11aR)-6-hydroxy-3-methyl-N-[(1,3,5-trimethyl-1H-pyrazol-4-yl)methyl]-5,7-dioxo-2,3,5,7,11,11a-hexahydro[1,3]oxazolo[3,2-a]pyrido[1,2-d]pyrazine-8-carboxamide] | 7.52 to 8.00
CCn1nc(C)c(CNC(=O)c2cn3c(c(O)c2=O)C(=O)N2[C@@H](C)CO[C@@H]2C3)c1C [Compound 1.1.6, (3S,11aR)-6-hydroxy-N-[(1-ethyl-3,5-dimethyl-1H-pyrazol-4-yl)methyl]3-methyl-5,7-dioxo-2,3,5,7,11,11a-hexahydro[1,3]oxazolo[3,2-a]pyrido[1,2-d]pyrazine-8-carboxamide] | 7.52 to 8.00
C[C@H]1CO[C@@H]2Cn3cc(C(=O)NCc4nccs4)c(=O)c(O)c3C(=O)N12 [Compound 1.1.8, (3S,11aR)-6-hydroxy-3-methyl-N-(1,3-thiazol-2-ylmethyl)-5,7-dioxo-2,3,5,7,11,11a-hexahydro[1,3]oxazolo[3,2-a]pyrido[1,2-d]pyrazine-8-carboxamide] | 8.00 to 8.70
Cc1coc(CNC(=O)c2cn3c(c(O)c2=O)C(=O)N2[C@@H](C)CO[C@@H]2C3)n1 [Compound 1.1.9, (3S,11aR)-6-hydroxy-3-methyl-N-[(4-methyl-1,3-oxazol-2-yl)methyl]-5,7-dioxo-2,3,5,7,11,11a-hexahydro[1,3]oxazolo[3,2-a]pyrido[1,2-d]pyrazine-8-carboxamide] | < 7.52
Cc1nnsc1CNC(=O)c1cn2c(c(O)c1=O)C(=O)N1[C@@H](C)CO[C@@H]1C2 [Compound 1.1.11, (3S,11aR)-6-hydroxy-3-methyl-N-[(4-methyl-1,2,3-thiadiazol-5-yl)methyl]-5,7-dioxo-2,3,5,7,11,11a-hexahydro[1,3]oxazolo[3,2-a]pyrido[1,2-d]pyrazine-8-carboxamide] | < 7.52
Cc1nonc1CNC(=O)c1cn2c(c(O)c1=O)C(=O)N1[C@@H](C)CO[C@@H]1C2 [Compound 1.1.12, (3S,11aR)-6-hydroxy-3-methyl-N-[(4-methyl-1,2,5-oxadiazol-3-yl)methyl]-5,7-dioxo-2,3,5,7,11,11a-hexahydro[1,3]oxazolo[3,2-a]pyrido[1,2-d]pyrazine-8-carboxamide] | 7.52 to 8.00
C[C@H]1CO[C@@H]2Cn3cc(C(=O)NCc4nncn4C)c(=O)c(O)c3C(=O)N12 [Compound 1.1.14, (3S,11aR)-6-hydroxy-3-methyl-N-[(4-methyl-4H-1,2,4-triazol-3-yl)methyl]-5,7-dioxo-2,3,5,7,11,11a-hexahydro[1,3]oxazolo[3,2-a]pyrido[1,2-d]pyrazine-8-carboxamide] | ~8.00
C[C@H]1CO[C@@H]2Cn3cc(C(=O)NCc4ccccn4)c(=O)c(O)c3C(=O)N12 [Compound 1.1.15, (3S,11aR)-6-hydroxy-3-methyl-N-(pyridyl-2-ylmethyl)-5,7-dioxo-2,3,5,7,11,11a-hexahydro[1,3]oxazolo[3,2-a]pyrido[1,2-d]pyrazine-8-carboxamide] | 7.52 to 8.00
C[C@H]1CO[C@@H]2Cn3cc(C(=O)NCc4ccc(Cl)nc4)c(=O)c(O)c3C(=O)N12 [Compound 1.1.18, (3S,11aR)-6-hydroxy-N-[(6-chloropyridin-3-yl)methyl]-3-methyl-5,7-dioxo-2,3,5,7,11,11a-hexahydro[1,3]oxazolo[3,2-a]pyrido[1,2-d]pyrazine-8-carboxamide] | 7.52 to 8.00
C[C@H]1CO[C@@H]2Cn3cc(C(=O)NCc4c(F)ccnc4F)c(=O)c(O)c3C(=O)N12 [Compound 1.1.21, (3S,11aR)-6-hydroxy-N-[(2,4-difluoropyridin-3-yl)methyl]-3-methyl-5,7-dioxo-2,3,5,7,11,11a-hexahydro[1,3]oxazolo[3,2-a]pyrido[1,2-d]pyrazine-8-carboxamide] | < 7.52
Cc1nccc(CNC(=O)c2cn3c(c(O)c2=O)C(=O)N2[C@@H](C)CO[C@@H]2C3)n1 [Compound 1.1.26, (3S,11aR)-6-hydroxy-3-methyl-N-[(2-methylpyrimidin-4-yl)methyl]-5,7-dioxo-2,3,5,7,11,11a-hexahydro[1,3]oxazolo[3,2-a]pyrido[1,2-d]pyrazine-8-carboxamide] | 7.52 to 8.00
C[C@H]1CO[C@@H]2Cn3cc(C(=O)NCc4cnccn4)c(=O)c(O)c3C(=O)N12 [Compound 1.1.27, (3S,11aR)-6-hydroxy-3-methyl-N-(pyrazin-2-ylmethyl)-5,7-dioxo-2,3,5,7,11,11a-hexahydro[1,3]oxazolo[3,2-a]pyrido[1,2-d]pyrazine-8-carboxamide] | < 7.52
C[C@H]1CO[C@@H]2Cn3cc(C(=O)NCc4cn5cc(Cl)sc5n4)c(=O)c(O)c3C(=O)N12 [Compound 1.1.28, (3S,11aR)-6-hydroxy-3-methyl-N-[(2-chloroimidazo[2,1-b][1,3]thiazol-6-yl)methyl]-5,7-dioxo-2,3,5,7,11,11a-hexahydro[1,3]oxazolo[3,2-a]pyrido[1,2-d]pyrazine-8-carboxamide] | < 7.52
C[C@H]1CO[C@@H]2Cn3cc(C(=O)NCc4cn5ncsc5n4)c(=O)c(O)c3C(=O)N12 [Compound 1.1.29, (3S,11aR)-6-hydroxy-N-(imidazo[2,1-b][1,3,4]thiadiazol-6-ylmethyl)-3-methyl-5,7-dioxo-2,3,5,7,11,11a-hexahydro[1,3]oxazolo[3,2-a]pyrido[1,2-d]pyrazine-8-carboxamide] | < 7.52
Cc1nn2cc(CNC(=O)c3cn4c(c(O)c3=O)C(=O)N3[C@@H](C)CO[C@@H]3C4)nc2s1 [Compound 1.1.30, (3S,11aR)-6-hydroxy-3-methyl-N-[(2-methylimidazo[2,1-b][1,3,4]thiadiazol-6-yl)methyl]-5,7-dioxo-2,3,5,7,11,11a-hexahydro[1,3]oxazolo[3,2-a]pyrido[1,2-d]pyrazine-8-carboxamide] | < 7.52
C[C@H]1CO[C@@H]2Cn3cc(C(=O)NCc4ccc5sccc5c4)c(=O)c(O)c3C(=O)N12 [Compound 1.1.31, (3S,11aR)-N-(1-benzothien-5-ylmethyl)-6-hydroxy-3-methyl-5,7-dioxo-2,3,5,7,11,11a-hexahydro[1,3]oxazolo[3,2-a]pyrido[1,2-d]pyrazine-8-carboxamide] | 8.00 to 8.70
C[C@H]1CO[C@@H]2Cn3cc(C(=O)NCc4cc5ccccc5o4)c(=O)c(O)c3C(=O)N12 [Compound 1.1.32, (3S,11aR)-N-(1-benzofuran-2-ylmethyl)-6-hydroxy-3-methyl-5,7-dioxo-2,3,5,7,11,11a-hexahydro[1,3]oxazolo[3,2-a]pyrido[1,2-d]pyrazine-8-carboxamide] | 8.00 to 8.70
